What was measured:
Assay in all cases: relative viability (nuclei count vs DMSO), 5 days (fraction); higher = more cells survive
NCI-H1734 = tested on: NCI-H1734
How it was run: (§1)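 Lung cancer cell lines in 1536-well plates got either a single drug or a fixed anchor-drug dose together with five library-drug doses (not always all listed) in √10 steps, by pin tool, on the day after seeding. Nuclei were counted after 5 days, and relative viability is the treated-to-vehicle ratio of nuclei counts. Values are medians of duplicate plates.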

EKVX = tested on: EKVX
How it was run: as §1

NCI-H2228 = tested on: NCI-H2228
How it was run: as §1

PC-14 = tested on: PC-14
How it was run: as §1

NCI-H1355 = tested on: NCI-H1355
How it was run: as §1

COR-L 105 = tested on: COR-L 105
How it was run: as §1

NCI-H2009 = tested on: NCI-H2009
How it was run: as §1

HCC-15 = tested on: HCC-15
How it was run: as §1

HOP-62 = tested on: HOP-62
How it was run: as §1

SK-MES-1 = tested on: SK-MES-1
How it was run: as §1

COR-L23 = tested on: COR-L23
How it was run: as §1

NCI-H2170 = tested on: NCI-H2170
How it was run: as §1

NCI-H1755 = tested on: NCI-H1755
How it was run: as §1

NCI-H1993 = tested on: NCI-H1993
How it was run: as §1

UMC-11 = tested on: UMC-11
How it was run: as §1

NCI-H358 = tested on: NCI-H358
How it was run: as §1

NCI-H838 = tested on: NCI-H838
How it was run: as §1

NCI-H647 = tested on: NCI-H647
How it was run: as §1

NCI-H2347 = tested on: NCI-H2347
How it was run: as §1

HARA = tested on: HARA
How it was run: as §1

## NC(=O)Nc1cc(-c2cccc(F)c2)sc1C(=O)N[C@H]1CCCNC1 [AZD7762] + C[C@@H](Oc1cc(-c2cnn(C3CCNCC3)c2)cnc1N)c1c(Cl)ccc(F)c1Cl [Crizotinib] (partner 1 µM)
NCI-H1734; first compound 0.01 µM
  relative viability: 0.837
NCI-H1734; first compound 0.03162 µM
  relative viability: 0.676
NCI-H1734; first compound 0.1 µM
  relative viability: 0.869
NCI-H1734; first compound 0.3162 µM
  relative viability: 0.612
NCI-H1734; first compound 1 µM
  relative viability: 0.458
EKVX; first compound 0.01 µM
  relative viability: 0.875
EKVX; first compound 0.03162 µM
  relative viability: 1.03
EKVX; first compound 0.1 µM
  relative viability: 0.874
EKVX; first compound 0.3162 µM
  relative viability: 0.798
EKVX; first compound 1 µM
  relative viability: 0.412
NCI-H2228; first compound 0.01 µM
  relative viability: 0.423
NCI-H2228; first compound 0.03162 µM
  relative viability: 0.588
NCI-H2228; first compound 0.1 µM
  relative viability: 0.461
NCI-H2228; first compound 0.3162 µM
  relative viability: 0.436
NCI-H2228; first compound 1 µM
  relative viability: 0.208
PC-14; first compound 0.01 µM
  relative viability: 0.943
PC-14; first compound 0.03162 µM
  relative viability: 0.859
PC-14; first compound 0.1 µM
  relative viability: 0.922
PC-14; first compound 0.3162 µM
  relative viability: 0.81
PC-14; first compound 1 µM
  relative viability: 0.41
NCI-H1355; first compound 0.01 µM
  relative viability: 1.02
NCI-H1355; first compound 0.03162 µM
  relative viability: 1.02
NCI-H1355; first compound 0.1 µM
  relative viability: 1.01
NCI-H1355; first compound 0.3162 µM
  relative viability: 1.14
NCI-H1355; first compound 1 µM
  relative viability: 1.03
COR-L 105; first compound 0.01 µM
  relative viability: 0.877
COR-L 105; first compound 0.03162 µM
  relative viability: 0.772
COR-L 105; first compound 0.1 µM
  relative viability: 0.591
COR-L 105; first compound 0.3162 µM
  relative viability: 0.406
COR-L 105; first compound 1 µM
  relative viability: 0.271
NCI-H2009; first compound 0.01 µM
  relative viability: 1.04
NCI-H2009; first compound 0.03162 µM
  relative viability: 1.13
NCI-H2009; first compound 0.1 µM
  relative viability: 1.07
NCI-H2009; first compound 0.3162 µM
  relative viability: 0.954
NCI-H2009; first compound 1 µM
  relative viability: 0.38
HCC-15; first compound 0.01 µM
  relative viability: 0.948
HCC-15; first compound 0.03162 µM
  relative viability: 0.776
HCC-15; first compound 0.1 µM
  relative viability: 0.818
HCC-15; first compound 0.3162 µM
  relative viability: 0.774
HCC-15; first compound 1 µM
  relative viability: 0.825
HOP-62; first compound 0.01 µM
  relative viability: 0.786
HOP-62; first compound 0.03162 µM
  relative viability: 1.03
HOP-62; first compound 0.1 µM
  relative viability: 1.17
HOP-62; first compound 0.3162 µM
  relative viability: 1.1
HOP-62; first compound 1 µM
  relative viability: 1.16
SK-MES-1; first compound 0.01 µM
  relative viability: 1.05
SK-MES-1; first compound 0.03162 µM
  relative viability: 0.966
SK-MES-1; first compound 0.1 µM
  relative viability: 1.08
SK-MES-1; first compound 0.3162 µM
  relative viability: 0.999
SK-MES-1; first compound 1 µM
  relative viability: 0.614
COR-L23; first compound 0.01 µM
  relative viability: 0.775
COR-L23; first compound 0.03162 µM
  relative viability: 0.656
COR-L23; first compound 0.1 µM
  relative viability: 0.616
COR-L23; first compound 0.3162 µM
  relative viability: 0.45
COR-L23; first compound 1 µM
  relative viability: 0.117
NCI-H2170; first compound 0.01 µM
  relative viability: 1.2
NCI-H2170; first compound 0.03162 µM
  relative viability: 1.26
NCI-H2170; first compound 0.1 µM
  relative viability: 1.24
NCI-H2170; first compound 0.3162 µM
  relative viability: 1.28
NCI-H2170; first compound 1 µM
  relative viability: 1
NCI-H1755; first compound 0.01 µM
  relative viability: 0.901
NCI-H1755; first compound 0.03162 µM
  relative viability: 0.872
NCI-H1755; first compound 0.1 µM
  relative viability: 0.929
NCI-H1755; first compound 0.3162 µM
  relative viability: 0.853
NCI-H1755; first compound 1 µM
  relative viability: 0.508
NCI-H1993; first compound 0.01 µM
  relative viability: 0.952
NCI-H1993; first compound 0.03162 µM
  relative viability: 0.957
NCI-H1993; first compound 0.1 µM
  relative viability: 0.729
NCI-H1993; first compound 0.3162 µM
  relative viability: 0.873
NCI-H1993; first compound 1 µM
  relative viability: 0.808
UMC-11; first compound 0.01 µM
  relative viability: 0.713
UMC-11; first compound 0.03162 µM
  relative viability: 0.421
UMC-11; first compound 0.1 µM
  relative viability: 0.516
UMC-11; first compound 0.3162 µM
  relative viability: 0.508
UMC-11; first compound 1 µM
  relative viability: 0.142
NCI-H358; first compound 0.01 µM
  relative viability: 0.743
NCI-H358; first compound 0.03162 µM
  relative viability: 0.695
NCI-H358; first compound 0.1 µM
  relative viability: 0.581
NCI-H358; first compound 0.3162 µM
  relative viability: 0.521
NCI-H358; first compound 1 µM
  relative viability: 0.202
NCI-H838; first compound 0.01 µM
  relative viability: 0.809
NCI-H838; first compound 0.03162 µM
  relative viability: 0.781
NCI-H838; first compound 0.1 µM
  relative viability: 0.762
NCI-H838; first compound 0.3162 µM
  relative viability: 0.687
NCI-H838; first compound 1 µM
  relative viability: 0.301
NCI-H647; first compound 0.01 µM
  relative viability: 1.15
NCI-H647; first compound 0.03162 µM
  relative viability: 1.11
NCI-H647; first compound 0.1 µM
  relative viability: 0.941
NCI-H647; first compound 0.3162 µM
  relative viability: 0.546
NCI-H647; first compound 1 µM
  relative viability: 0.105
NCI-H2347; first compound 0.01 µM
  relative viability: 1.01
NCI-H2347; first compound 0.03162 µM
  relative viability: 0.918
NCI-H2347; first compound 0.1 µM
  relative viability: 0.734
NCI-H2347; first compound 0.3162 µM
  relative viability: 0.928
NCI-H2347; first compound 1 µM
  relative viability: 0.67
HARA; first compound 0.01 µM
  relative viability: 1.11
HARA; first compound 0.03162 µM
  relative viability: 0.98
HARA; first compound 0.1 µM
  relative viability: 0.894
HARA; first compound 0.3162 µM
  relative viability: 1.01
HARA; first compound 1 µM
  relative viability: 0.25

— the supplement of paper PMC10307832
